The source of these data is patent US4857324A, “Exogenously acidified antacid compositions having cytoprotective properties” (priority 1987, dated 1989).

Data set [1] relates to gastric mucosa. The conditions noted are these: literature; cited from earlier work.
In data set [2] the test system is ethanol induced gastric ulcers in the rat. As to the kind of experiment: ethanol-induced lesion assay (cytoprotective activity) in rats. Particulars: for % INHIBITION: Table 4. Type of data set: in vivo, rat (male Sprague-Dawley). The text has this:
The cytoprotective activity of a compound may be observed in both animals and man by noting the increase resistance of the gastrointestinal mucosa to the noxious effects of strong irritants, for example, the ulcerogenic effects of aspirin or indomethacin.
The ethanol-induced lesion assay is a standard test for cytoprotective activity and is described in an article by A. Robert et al entitled "Cytoprotection By Prostaglandins in Rats" published in Gastroenterology 77:433-443, 1979.
The ethanol-induced lesion assay was used to measure the cytoprotective ability of commercial antacids. Male Sprague-Dawley rats (supplier, Charles River, Willmington, Mass.) weighing between 120-150 g were used. The rats were fasted for 24 hr prior to use (water ad libitum). Before dosing, the animals were placed two per cage and denied water.
Animals were orally, i.e. intragastrically pretreated, one hour before ethanol administration with either RIOPAN Extra Strength suspension, MAALOX suspension, PGE2, or vehicle. One hour after ethanol administration, the rats were sacrificed by CO2 asphyxiation. The stomachs were removed and kept moist with saline until the lesions were scored. Ulcers were scored with the investigator unaware of the treatment groups (single blind). Ulcers were graded according to the following scale: […]
GRADE (Approximate length of lesion)
Absolute ethanol was given orally, 1 ml/rat. RIOPAN Extra Strength, 1080 mg magaldrate per 5 ml (lot 3RM4), and MAALOX, 200 mg Mg(OH)2 +225 mg Al(OH)3 per 5 ml (lot 64700), were administered orally as commercially available suspensions. The dose volume administered was based on the ED50 (ml of antacid/kg, see Table 1).
The dose volume of acidified antacid was adjusted for the volume of 6 N HCl added to the suspension. PGE2 was stored in 100% ethanol and diluted with normal saline before use.
Magaldrate of Example 1 and MAALOX of Example 2 were prepared as described above. The dose volume of nonbuffering antacid was adjusted for the volume of 6 N HCl added to the suspension during preparation. PGE2 was stored in 100% ethanol and diluted with normal saline before use.
The mean ulcer score of each treatment group was compared to the control group and expressed as the percent inhibition of ulcer formation.
The cytoprotective ED50 before and after acidification for the magaldrate of Example 1, referred to in this example as RIOPAN Extra Strength, and for MAALOX of Example 2 was calculated by standard regression analysis of the dose-response data. Confidence limits of 95% were calculated using the statistical differential method.
The spray dried powders of Examples 8 through 15 were tested for cytoprotective activity in the ethanol-induced lesion assay as described in Example 7.
The respective powders were admixed with sufficient water to form a liquid and the animals were dosed 400 milligrams of powder per kilo of body weight […]. in the test.
The experiments were performed using ten rats for each test composition and using the in vivo test procedure described in Example 7. The dose of acidified Extra Strength RIOPAN was selected for the test at 0.46 milliliters per kilogram of rat body weight. Approximately 4.6 times this amount (8 times on a mg/kg basis) was selected for the dose of commercial Extra Strength RIOPAN. Approximately 30 times this amount was selected for each dose of the Wenger et al solutions.
Two experiments were performed using ten rats for each test composition and again using the in vivo test procedure described in Example 7. In these experiments the dose in milliliters per kilogram of rat body weight was equal for each test composition.

Data set [3] relates to ethanol induced ulcer. Particulars: Robert et al 1984; cited from earlier work.
For data set [4] the following is noted: per 5 ml of suspension or liquid; cited from earlier work.
In data set [5] the test system is gastric acid secretion. Particulars: in vivo; cited from earlier work.

Structures are written as SMILES.

For the compound `[OH][Al]([OH])[OH]` [Al(OH)3, aluminum hydroxide], the “gastric cytoprotection (in words)” value in data set [1] is “have cytoprotective properties”.

Consider `CCCCC[C@H](O)/C=C/[C@H]1[C@H](O)CC(=O)[C@@H]1C/C=C\CCCC(=O)O` [PGE2], for which the “% INHIBITION” value in data set [2] (dose 25 g/kg p.o. (so in the source)) is listed as 39%; in data set [2] (dose 50 g/kg p.o. (so in the source)), 63%; in data set [2] (dose 75 g/kg p.o. (so in the source)), 80%. For the same compound, the “effect on ethanol induced ulcers (in words)” value in data set [2] (rat, p.o.) is recorded as “inhibited ethanol induced ulcer formation”. Moreover, the “potency of PGE2 relative to acidified RIOPAN Extra Strength or acidified MAALOX” value in data set [2] (rat, p.o.) is given as “approximately 1000 times”.

`[Cl][Al]([Cl])[Cl]` [aluminum chloride]: in data set [2] (ethanol-induced gastric lesion model), the “cytoprotective activity (in words)” value is “does not exhibit such activity”.

Turning to `CN/C(=N/CCSCc1nc[nH]c1C)NC#N` [cimetidine], in data set [3], the “protection in the ethanol induced ulcer model” value was “do not protect in this model”.

As for `O.O=S(=O)([O-])[O-].O=S(=O)([O-])[O-].[Al+3].[Al+3].[Al+3].[Al+3].[Al+3].[Mg+2].[Mg+2].[Mg+2].[Mg+2].[Mg+2].[Mg+2].[Mg+2].[Mg+2].[Mg+2].[Mg+2].[OH-].[OH-].[OH-].[OH-].[OH-].[OH-].[OH-].[OH-].[OH-].[OH-].[OH-].[OH-].[OH-].[OH-].[OH-].[OH-].[OH-].[OH-].[OH-].[OH-].[OH-].[OH-].[OH-].[OH-].[OH-].[OH-].[OH-].[OH-].[OH-].[OH-].[OH-]` [magaldrate, aluminum magnesium hydroxide sulfate], the “acid neutralized / acid neutralization capacity (ANC)” value in data set [4] was 13.5 to 15 mEq. In addition, in data set [2] (rat, p.o.), the “effect on ethanol induced ulcers (in words)” value is “inhibit ethanol induced ulcers in rats”.

For the compound `CC(C)[N+](C)(CCOC(=O)C1c2ccccc2Oc2ccccc21)C(C)C` [propantheline bromide], the “protection in the ethanol induced ulcer model” value in data set [3] was “do not protect in this model”.

With `CCCCC[C@H](O)/C=C/[C@@H]1[C@@H](C/C=C\CCCC(=O)O)[C@@H](O)C[C@H]1O` [prostaglandin F2], in data set [1], the “gastric cytoprotection (in words)” value is “does induce gastric cytoprotection”. Further, the “inhibition of gastric acid secretion” value in data set [5] is recorded as “does not inhibit gastric acid secretion”.
